From patent US20260365653A1, “IRREVERSIBLE MUTEGFR INHIBITORS” (Bayer Aktiengesellschaft, priority 2022, published 2026)

How the values were obtained:
[1] = target: T1, mutEGFR (D770_N771insNPG, T790) (Homo sapiens, UniProt P00533, INS770NPG/T790M); test: mutEGFR (D770_N771insNPG, T790) kinase assay; assay type: biochemical
T1 construct: exact insNPG construct not described; in-house EGFR proteins were N-terminal GST fusions from baculovirus/insect cells (borders R669-A1210 given only for WT, insSVD, insASV)
Description: The different EGFR proteins used in the biochemical kinase activity inhibition assays were generated inhouse by expression in insect cells using Baculo Virus system and subsequent purification as described in the following paragraphs.
The cDNAs encoding the various protein sequences from human EGFR human (P00533) were optimized for expression in eukaryotic cells and synthesized by the GeneArt Technology at Life Technologies.

[2] = test system: BA/F3 (insSVD) cells; test: Ba/F3-EGFR-insSVD cell survival assay (Cell Titer-Glo); assay type: cell-based
In short: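 Ba/F3 cells stably expressing retroviral EGFR-insSVD or insSVD T790M, grown without IL-3 on 10 ng/ml EGF, 4000 cells/well. Compound pinned in, 48 h at 37° C. Viability by CellTiter-Glo luminescence.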

[3] = test system: BA/F3 (EGFR D770_N771 insSVD T790M) cells; test: Ba/F3-EGFR-insSVD T790M cell survival assay (Cell Titer-Glo); assay type: cell-based; settings: Ba/F3 EGFR-D770-N771ins_SVD, 48 h
Method: Cellular Data Description (WT, insSVD, insSVD T790M) 293T cells from ATCC were transfected with pBABEpuro expression constructs for WT EGFR or EGFR-insSVD, or EGFR-insSVD T790M, and pCL-Eco packaging vector using Fugene-6 transfection reagent from Promega. Plates were incubated at 37° C. for 48 h. Retrovirus was harvested by filtering the media supernatant through a 0.45 μm filter.
Ba/F3 cells purchased from DSMZ were grown in RPMI+10% FBS+10 ng/ml IL-3 and infected with filtered retroviral supernatant at a 1:2 dilution. Polybrene was added to a concentration of 8 μg/mL, plates were spun for 90 min, and incubated for 16 h at 37° C. 2 μg/mL puromycin was added to the infected cells 24 h after infection and cells were continually grown in the presence of puromycin and 10 ng/ml IL-3. Following stably expressing Ba/F3 cell lines were generated: Ba/F3-EGFR-WT, Ba/F3-EGFR-insSVD, Ba/F3-EGFR-insSVD T790M, (Ba/F3-vector-control).
For cell survival assays, Ba/F3 cells were grown to a density of 1-2 million cells per mL, spun down and resuspended in media without IL-3, and replated at a concentration of 200,000-500,000 cells per mL. The cells ectopically expressing WT EGFR, EGFR-insSVD, or EGFR-insSVD T790M were plated with 10 ng/ml Millipore Culture grade EGF. The cells ectopically expressing pBABEpuro empty vector were plated with 10 ng/mL IL-3.
2 days later, cells were plated in 50 µL in a 384 well plate at a concentration of 4000 cells per well for cells assayed in the absence of IL-3 and 2000 cells per well for cells assayed in the presence of IL-3. 100 nL of compound was added to each well using a 100 nL pin head, and plates were incubated at 37° C. for 48 h.
Cell viability was measured by adding 20 μL of Cell Titer-Glo Luminescent Cell Viability Reagent diluted 1:3 in PBS. Plates were sealed with Perkin Elmer Top-Seal, inverted several times to mix, and immediately centrifuged at 1000 rpm for 2 min. Plates were incubated in low light conditions for 8-10 min and luminescence was measured.

[4] = target: T2, mutEGFR (D770_N771insSVD) (Homo sapiens, UniProt P00533, DUP768-770); test: Exon20-Mutant-EGFR (D770_N771insSVD) kinase assay (TR-FRET); assay type: biochemical
T2 construct: GST-EGFR #3 (SVD between D770 and N771); made in house; host or cells: Sf9 insect cells (baculovirus)

[5] = test system: EGFR exon20 insertions; settings: patients with EGFR exon20 insertions; cited from earlier work
[6] = test system: mutations in exons 18, 19, and 21 of EGFR; settings: cited from earlier work
[7] = Mus musculus, BaF3, 48 h, Table 3a, cell survival, Cell Titer-Glo, with 10 ng/ml EGF, without IL-3
[8] = Table 3a, cell survival, Cell Titer-Glo, with 10 ng/ml EGF, without IL-3
[9] = mutEGFR (D770_N771insSVD) kinase assay IC50, Table 2a, D770_N771insSVD, 2 mM ATP
[10] = Table 2b (from US Priority Patent Application), mutEGFR D770_N771insNPG
[11] = Mus musculus, BaF3, 48 h, Table 3b, Ba/F3 EGFR-insSVD
[12] = Table 3b, Ba/F3 EGFR-insSVD T790M
[13] = mutEGFR (D770_N771insSVD) kinase assay IC50, Table 2b (from US Priority Patent Application), mutEGFR D770_N771insSVD

T2 sequence (P00533 with tags, fused parts or gaps DUP768-770): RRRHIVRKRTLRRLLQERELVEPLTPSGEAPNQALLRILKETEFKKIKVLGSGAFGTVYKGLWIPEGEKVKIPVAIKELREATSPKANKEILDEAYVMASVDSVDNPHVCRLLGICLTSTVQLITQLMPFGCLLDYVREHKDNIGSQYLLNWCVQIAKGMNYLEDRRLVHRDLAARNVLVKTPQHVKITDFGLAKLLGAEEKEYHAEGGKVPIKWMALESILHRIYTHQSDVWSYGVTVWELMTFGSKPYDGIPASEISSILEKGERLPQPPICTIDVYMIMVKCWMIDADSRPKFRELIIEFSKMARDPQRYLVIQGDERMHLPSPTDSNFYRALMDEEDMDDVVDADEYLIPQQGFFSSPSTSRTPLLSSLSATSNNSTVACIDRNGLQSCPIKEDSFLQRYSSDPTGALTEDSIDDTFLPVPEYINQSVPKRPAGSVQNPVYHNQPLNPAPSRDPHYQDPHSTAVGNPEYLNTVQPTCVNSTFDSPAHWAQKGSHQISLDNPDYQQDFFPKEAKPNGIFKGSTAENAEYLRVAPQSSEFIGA
T1 sequence (P00533 with tags, fused parts or gaps INS770NPG/T790M limits assumed): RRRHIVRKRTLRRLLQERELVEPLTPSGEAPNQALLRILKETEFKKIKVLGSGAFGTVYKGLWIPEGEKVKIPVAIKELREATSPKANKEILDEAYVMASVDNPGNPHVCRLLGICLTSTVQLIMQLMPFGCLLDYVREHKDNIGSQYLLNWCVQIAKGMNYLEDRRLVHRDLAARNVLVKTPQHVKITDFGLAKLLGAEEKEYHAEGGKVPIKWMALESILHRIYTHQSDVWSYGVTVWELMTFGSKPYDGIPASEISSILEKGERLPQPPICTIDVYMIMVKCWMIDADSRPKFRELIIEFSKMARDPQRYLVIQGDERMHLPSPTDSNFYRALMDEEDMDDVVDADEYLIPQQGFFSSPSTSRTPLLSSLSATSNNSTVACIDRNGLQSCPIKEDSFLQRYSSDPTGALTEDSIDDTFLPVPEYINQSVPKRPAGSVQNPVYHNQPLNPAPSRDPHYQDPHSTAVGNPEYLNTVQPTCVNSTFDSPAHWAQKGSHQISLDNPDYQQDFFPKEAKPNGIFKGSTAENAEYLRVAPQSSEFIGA

| IC50 ([1]; Table 2a, D770_N771insNPG) | IC50 [4, 9] | IC50 [1, 10] | IC50 [4, 13] | Structure (SMILES) | IC50 [2, 7] | IC50 [3, 8] | IC50 ([2]; Table 3a, cell survival, Cell Titer-Glo, with 10 ng/ml EGF, without IL-3, 48 h) | IC50 [2, 11] | IC50 [3, 12] | overall survival [5] | progression-free survival [5] | response rates [5] | durability of response [6] | efficacy in patients [6] |
| --- | --- | --- | --- | --- | --- | --- | --- | --- | --- | --- | --- | --- | --- | --- |
| 1.42 nM | 0.409 nM |  |  | C=CC(=O)N1Cc2c(-c3ccncc3)c(-c3ccc(F)cc3)nn2C(CO)C1 (racemic) [Example 203, 1-[(7RS)-2-(4-fluorophenyl)-7-(hydroxymethyl)-3-(pyridin-4-yl)-6,7-dihydropyrazolo[1,5-a]pyrazin-5(4H)-yl]prop-2-en-1-one] | 17.4 nM | 108 nM |  |  |  |  |  |  |  |  |
| 96 nM | 50.3 nM |  |  | C=CC(=O)N1C(C)c2c(-c3ccncc3)c(-c3ccc(Cl)cc3F)nn2C[C@@H]1C (single isomer, unassigned; isomer 2) [Example 293] |  | 9980 nM | 380 nM |  |  |  |  |  |  |  |
| 0.953 nM | 0.618 nM | 0.953 nM | 0.618 nM | C=CC(=O)N1CCn2nc(-c3ccc(F)cc3)c(-c3ccncc3)c2C1 [Example 1, 1-[2-(4-fluorophenyl)-3-(pyridin-4-yl)-6,7-dihydropyrazolo[1,5-a]pyrazin-5(4H)-yl]prop-2-en-1-one] | 34.6 nM | 119 nM |  | 34.6 nM | 119 nM |  |  |  |  |  |
| 0.324 nM | 0.139 nM | 0.324 nM | 0.139 nM | C=CC(=O)N1CCn2nc(-c3ccc(Cl)cc3)c(-c3ccncc3)c2C1 [Example 3, 1-[2-(4-chlorophenyl)-3-(pyridin-4-yl)-6,7-dihydropyrazolo[1,5-a]pyrazin-5(4H)-yl]prop-2-en-1-one] | 13.2 nM | 108 nM |  | 13.2 nM | 108 nM |  |  |  |  |  |
| 1.04 nM | 2.19 nM | 1.04 nM | 2.19 nM | C=CC(=O)N1CCn2nc(-c3cccc(OC)c3)c(-c3ccncc3)c2C1 [Example 5, 1-[2-(3-methoxyphenyl)-3-(pyridin-4-yl)-6,7-dihydropyrazolo[1,5-a]pyrazin-5(4H)-yl]prop-2-en-1-one] | 80.5 nM | 114 nM |  | 80.5 nM | 114 nM |  |  |  |  |  |
| 0.407 nM | 0.326 nM | 0.407 nM | 0.326 nM | CC(C)N(C)C/C=C/C(=O)N1CCn2nc(-c3ccc(F)cc3)c(-c3ccnc(NC(=O)C4CC4)c3)c2C1 [Example 6, N-{4-[2-(4-fluorophenyl)-5-{(2E)-4-[methyl(propan-2-yl)amino]but-2-enoyl}-4,5,6,7-tetrahydropyrazolo[1,5-a]pyrazin-3-yl]pyridin-2-yl}cyclopropanecarboxamide] | 22.3 nM | 207 nM |  | 22.3 nM | 207 nM |  |  |  |  |  |
| 0.408 nM | 0.209 nM | 0.408 nM | 0.209 nM | C=CC(=O)N1CCn2nc(-c3ccc(F)cc3)c(-c3ccnc(NC(=O)C4CC4)c3)c2C1 [Example 7, N-{4-[2-(4-fluorophenyl)-5-(prop-2-enoyl)-4,5,6,7-tetrahydropyrazolo[1,5-a]pyrazin-3-yl]pyridin-2-yl}cyclopropanecarboxamide] | 12.4 nM | 60.1 nM |  | 12.4 nM | 60.1 nM |  |  |  |  |  |
| 2.26 nM | 0.849 nM | 2.26 nM | 0.849 nM | C=CC(=O)N1CCn2nc(-c3ccc(F)cc3)c(-c3ccnc(N)c3)c2C1 [Example 10, 1-[3-(2-aminopyridin-4-yl)-2-(4-fluorophenyl)-6,7-dihydropyrazolo[1,5-a]pyrazin-5(4H)-yl]prop-2-en-1-one] | 46.5 nM | 346 nM |  | 46.5 nM | 346 nM |  |  |  |  |  |
| 0.867 nM | 0.406 nM | 0.867 nM | 0.406 nM | C=CS(=O)(=O)N1CCn2nc(-c3ccc(F)cc3)c(-c3ccncc3)c2C1 [Example 14, 5-(ethenesulfonyl)-2-(4-fluorophenyl)-3-(pyridin-4-yl)-4,5,6,7-tetrahydropyrazolo[1,5-a]pyrazine] | 760 nM | 983 nM |  | 760 nM | 983 nM |  |  |  |  |  |
| 1.76 nM | 0.451 nM | 1.76 nM | 0.451 nM | CC(C)N(C)C/C=C/C(=O)N1CCn2nc(-c3ccc(F)cc3)c(-c3ccncc3)c2C1 [Example 18, (2E)-1-[2-(4-fluorophenyl)-3-(pyridin-4-yl)-6,7-dihydropyrazolo[1,5-a]pyrazin-5(4H)-yl]-4-[methyl(propan-2-yl)amino]but-2-en-1-one] | 143 nM | 9980 nM |  | 143 nM | 0.217 nM |  |  |  |  |  |
| 1.13 nM | 0.321 nM |  |  | C=CC(=O)N1CCn2nc(-c3ccc(Cl)c(F)c3)c(-c3ccncc3)c2C1 [Example 36, 1-[2-(4-chloro-3-fluorophenyl)-3-(pyridin-4-yl)-6,7-dihydropyrazolo[1,5-a]pyrazin-5(4H)-yl]prop-2-en-1-one] | 17.9 nM | 126 nM |  |  |  |  |  |  |  |  |
| 0.658 nM | 0.258 nM |  |  | C=CC(=O)N1CCn2nc(-c3ccc(Cl)cc3F)c(-c3ccncc3)c2C1 [Example 37, 1-[2-(4-chloro-2-fluorophenyl)-3-(pyridin-4-yl)-6,7-dihydropyrazolo[1,5-a]pyrazin-5(4H)-yl]prop-2-en-1-one] | 7.14 nM | 104 nM |  |  |  |  |  |  |  |  |
| 0.148 nM | 0.0982 nM |  |  | C=CC(=O)N1CCn2nc(-c3ccc(Cl)c(Cl)c3)c(-c3ccncc3)c2C1 [Example 40, 1-[2-(3,4-dichlorophenyl)-3-(pyridin-4-yl)-6,7-dihydropyrazolo[1,5-a]pyrazin-5(4H)-yl]prop-2-en-1-one] | 14.9 nM | 56 nM |  |  |  |  |  |  |  |  |
| 0.952 nM | 0.382 nM |  |  | CN(C)CC#CC(=O)N1CCn2nc(-c3ccc(F)cc3)c(-c3ccncc3)c2C1 [Example 65, 4-(dimethylamino)-1-[2-(4-fluorophenyl)-3-(pyridin-4-yl)-6,7-dihydropyrazolo[1,5-a]pyrazin-5(4H)-yl]but-2-yn-1-one] | 15.3 nM | 1010 nM |  |  |  |  |  |  |  |  |
| 0.0916 nM | < 0.0725 nM |  |  | C=CC(=O)N1CCn2nc(-c3ccc4sccc4c3)c(-c3ccncc3)c2C1 [Example 192, 1-[2-(1-benzothiophen-5-yl)-3-(pyridin-4-yl)-6,7-dihydropyrazolo[1,5-a]pyrazin-5(4H)-yl]prop-2-en-1-one] | 148 nM | 39.7 nM |  |  |  |  |  |  |  |  |
| 0.219 nM | 0.0825 nM |  |  | C=CC(=O)N1CCn2nc(-c3ccc4cc[nH]c4c3)c(-c3ccncc3)c2C1 [Example 195, 1-[2-(1H-indol-6-yl)-3-(pyridin-4-yl)-6,7-dihydropyrazolo[1,5-a]pyrazin-5(4H)-yl]prop-2-en-1-one] | 8.9 nM | 43.3 nM |  |  |  |  |  |  |  |  |
|  |  |  |  | C#Cc1cccc(Nc2ncnc3cc(OCCOC)c(OCCOC)cc23)c1 [erlotinib] |  |  |  |  |  | significantly reduced | significantly reduced | particular low response rates | often not durable | effective in patients |
